Results: PMC6519479 (Molecular systems design & engineering, 2018)
No end group written: not given here.

Experiments:
E. coli J2210 = assay type: cell-based; details: J2210, 1 h
E. coli JW0013 = assay type: cell-based; details: for MIC E. coli JW0013: JW0013, 1 h; for MIC in 20% M9 / MIC in 20% MHB / MIC in 60% M9 / MIC in 60% MHB / MIC in 100% M9 / MIC in 100% MHB: JW0013, 6 h
E. coli O157:H7 = assay type: cell-based; details: O157:H7, 1 h
Salmonella SL1344 = assay type: cell-based, Salmonella enterica serovar Typhimurium; details: 1 h
Salmonella MH91989 = assay type: cell-based, Salmonella enterica serovar Enteritidis; details: 1 h
E. coli JJ2487 = assay type: cell-based; details: JJ2487, 1 h
E. coli MC1061 = assay type: cell-based; details: MC1061, 1 h
[1] = cited from earlier work

Substance	MIC E. coli J2210 (E. coli J2210) [µg/mL]	MIC E. coli JW0013 (E. coli JW0013) [µg/mL]	MIC in 20% M9 (E. coli JW0013) [µg/mL]	MIC in 20% MHB (E. coli JW0013) [µg/mL]	MIC in 60% M9 (E. coli JW0013) [µg/mL]	MIC in 60% MHB (E. coli JW0013) [µg/mL]	MIC in 100% M9 (E. coli JW0013) [µg/mL]	MIC in 100% MHB (E. coli JW0013) [µg/mL]	MIC E. coli O157:H7 (E. coli O157:H7) [µg/mL]	MIC Salmonella SL1344 (Salmonella SL1344) [µg/mL]	MIC Salmonella MH91989 (Salmonella MH91989) [µg/mL]	MIC E. coli JJ2487 (E. coli JJ2487) [µg/mL]	MIC E. coli MC1061 (E. coli MC1061) [µg/mL]	antimicrobial activity compared to Onc18 [1]
VDKKPYKPRPRPPRRIYNR-NH2 [VDKKPYKPRPRPPRRIYNR-NH2]	0.20 ± 0.09	0.30 ± 0.07	0.30 ± 0.09	0.20 ± 0.09	1.57 ± 0.68	0.79 ± 0.35	9.60 ± 2.00	2.40 ± 0.56	1.57 ± 0.68	0.42 ± 0.21	0.42 ± 0.21	0.30 ± 0.07	0.15 ± 0.03	–
VDKRPYRPRPRPPRRIYNR-NH2 [VDKRPYRPRPRPPRRIYNR-NH2]	0.30 ± 0.07	0.39 ± 0.18	–	–	–	–	–	–	1.66 ± 0.82	0.39 ± 0.18	0.42 ± 0.21	0.42 ± 0.21	0.15 ± 0.03	–
VDKRPYLPRPRPPRRIYNR-NH2 [VDKRPYLPRPRPPRRIYNR-NH2]	0.60 ± 0.14	0.83 ± 0.42	–	–	–	–	–	–	2.40 ± 0.56	0.60 ± 0.14	0.60 ± 0.14	0.39 ± 0.18	0.30 ± 0.07	–
VDKPPYLPRPRPPRRIYNR-NH2 [VDKPPYLPRPRPPRRIYNR-NH2, reference compound]	0.79 ± 0.35	0.83 ± 0.42	0.60 ± 0.14	0.79 ± 0.35	1.20 ± 0.28	1.20 ± 0.28	2.40 ± 0.56	2.40 ± 0.56	3.14 ± 1.28	0.60 ± 0.14	0.60 ± 0.14	0.60 ± 0.14	0.30 ± 0.07	–
VDKPPYRPRPRPPRRIYNR-NH2 [VDKPPYRPRPRPPRRIYNR-NH2]	0.39 ± 0.18	0.42 ± 0.21	–	–	–	–	–	–	2.40 ± 0.56	0.42 ± 0.21	0.60 ± 0.14	0.39 ± 0.18	0.20 ± 0.09	–
VDKPPYLPRPRPPROIYNO-NH2 [Onc72]	–	–	–	–	–	–	–	–	–	–	–	–	–	improved
VDKKPYLPRPRPPRRIYNR-NH2 [VDKKPYLPRPRPPRRIYNR-NH2]	0.39 ± 0.18	0.60 ± 0.14	–	–	–	–	–	–	2.40 ± 0.56	0.60 ± 0.14	0.60 ± 0.14	0.60 ± 0.14	0.30 ± 0.07	–
VDKKPYRPRPRPPRRIYNR-NH2 [VDKKPYRPRPRPPRRIYNR-NH2]	0.30 ± 0.07	0.39 ± 0.18	0.39 ± 0.18	0.20 ± 0.09	1.20 ± 0.28	0.60 ± 0.14	9.60 ± 2.00	2.40 ± 0.56	1.57 ± 0.68	0.39 ± 0.18	0.39 ± 0.18	0.30 ± 0.07	0.15 ± 0.03	–
VDKPPYKPRPRPPRRIYNR-NH2 [VDKPPYKPRPRPPRRIYNR-NH2]	0.30 ± 0.07	0.60 ± 0.14	–	–	–	–	–	–	2.40 ± 0.56	0.60 ± 0.14	0.60 ± 0.14	0.79 ± 0.35	0.15 ± 0.03	–
VDKPPYLPRPRPPRrIYNr-NH2 [Onc112]	–	–	–	–	–	–	–	–	–	–	–	–	–	improved
